In ChEMBL document CHEMBL3779829, “Tandem virtual screening targeting the SRA domain of UHRF1 identifies a novel chemical tool modulating DNA methylation” (Eur J Med Chem, 2016):
Activity calls are given as the source filed them. No cut-off for these calls is given here.

Assays:
Format in all cases: cell-based
[1] = target: T1, E3 ubiquitin-protein ligase UHRF1 (Homo sapiens) (UniProt Q96T88); test: Inhibition of UHRF1/DNMT1 protein interaction in human U251 cells assessed as reduction in 5-methylcytosine level at 15 uM after 72 hrs by ELISA relative to control; details: U-251
T1 sequence (whole entry): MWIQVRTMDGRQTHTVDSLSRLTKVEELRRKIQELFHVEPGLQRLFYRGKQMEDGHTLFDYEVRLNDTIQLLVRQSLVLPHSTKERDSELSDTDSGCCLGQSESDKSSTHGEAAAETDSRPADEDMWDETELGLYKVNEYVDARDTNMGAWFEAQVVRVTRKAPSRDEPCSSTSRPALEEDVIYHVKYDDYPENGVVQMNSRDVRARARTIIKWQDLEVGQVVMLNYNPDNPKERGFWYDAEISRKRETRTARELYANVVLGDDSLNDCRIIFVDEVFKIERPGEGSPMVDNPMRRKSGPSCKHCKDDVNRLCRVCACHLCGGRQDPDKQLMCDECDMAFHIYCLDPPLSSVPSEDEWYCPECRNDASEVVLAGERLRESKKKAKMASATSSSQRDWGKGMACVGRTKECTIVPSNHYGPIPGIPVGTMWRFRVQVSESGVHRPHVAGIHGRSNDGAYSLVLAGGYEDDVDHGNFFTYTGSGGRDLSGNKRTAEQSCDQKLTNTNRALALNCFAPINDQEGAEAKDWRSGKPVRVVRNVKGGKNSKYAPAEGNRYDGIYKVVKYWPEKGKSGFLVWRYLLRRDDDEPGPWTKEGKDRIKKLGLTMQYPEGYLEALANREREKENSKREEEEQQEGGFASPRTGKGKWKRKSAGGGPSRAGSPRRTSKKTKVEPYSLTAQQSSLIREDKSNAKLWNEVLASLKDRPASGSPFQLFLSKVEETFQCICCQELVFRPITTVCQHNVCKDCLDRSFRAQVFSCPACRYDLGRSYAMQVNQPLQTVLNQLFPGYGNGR

[2] = target: T1, E3 ubiquitin-protein ligase UHRF1 (Homo sapiens); test: Inhibition of UHRF1/DNMT1 protein interaction in human U251 cells at 15 uM after 4 hrs by DAPI staining based P-LISA; details: U-251
[3] = target: T1, E3 ubiquitin-protein ligase UHRF1 (Homo sapiens); test: Inhibition of UHRF1 in human MCF7 cells assessed as DNA global demethylation by measuring 5-methylcytosine level at 15 uM after 72 hrs by HPLC-MS/MS analysis (reference value: 1.7 +/- 0.36%); parameters: scale not given: the % may be the effect or the level left
[4] = target: T1, E3 ubiquitin-protein ligase UHRF1 (Homo sapiens); test: Inhibition of UHRF1 in human MCF7 cells assessed as decrease in methylation at RAR beta exon at 15 uM after 72 hrs by methylation specific-PCR method
[5] = target: T1, E3 ubiquitin-protein ligase UHRF1 (Homo sapiens); test: Inhibition of UHRF1 in human MCF7 cells assessed as reduction in global 5-methylcytosine level at 15 uM after 72 hrs by HPLC-MS/MS analysis relative to control

**Q.** What does the source list for `C/C(NO)=C1\C=NC(=O)NC1=O`?
**A.** inhibition [1]: 50%; inhibition [2]: 50%

**Q.** How did the Activity [3] turn out when `Nc1ncn([C@@H]2O[C@H](CO)[C@@H](O)[C@H]2O)c(=O)n1` was run?
**A.** The Activity was 0.88%.

**Q.** And the “RAR beta exon methylation decrease (activity call)” value (“RAR beta exon methylation decrease” for short) [4]?
**A.** Its value is “Active”.

**Q.** And the inhibition [5]?
**A.** Its inhibition is 48%.

**Q.** With `O=C1NC(=O)C2(CC2)C(=O)N1` as the molecule, how does the Activity [3] read?
**A.** The Activity was 0.82%.

**Q.** What about the inhibition [4] of the same molecule?
**A.** Its inhibition is “Active”.

**Q.** With `CCOC(=O)c1cnc(=O)[nH]c1N` as the molecule, how does the Activity [3] read?
**A.** Its Activity is 0.87%.

**Q.** And the “RAR beta exon methylation decrease” value [4]?
**A.** Its value is “Active”.

**Q.** Which results are given for `CC(=O)c1c[nH]c(=O)[nH]c1=O`?
**A.** Activity [3]: 0.74%; RAR beta exon methylation decrease (activity call) [4]: Active; inhibition [5]: 56%

**Q.** `CN(C)c1c[nH]c(=O)[nH]c1=O` was tested. Which Activity [3] did it give?
**A.** The Activity was 0.86%.

**Q.** And the “RAR beta exon methylation decrease” value [4]?
**A.** The value was “Active”.

**Q.** How did the Activity [3] turn out when `c1ccc2c(C3CCN(CCN4CCOCC4)C3)c[nH]c2c1` (stereo unspecified) was run?
**A.** Its Activity is 0.99%.

**Q.** What about the “RAR beta exon methylation decrease” value [4] of the same molecule?
**A.** Its value is “Active”.
